The subject of one series is PaCa-2. Description: Antitumor cytotoxicity GI50, MTT bioassay. The series is classed as cell-based. The following applies: Homo sapiens, PaCa-2 (pancreas). An excerpt:
(§1) Purdue Cancer Center Cell Culture Laboratory has provided bioassay service for measuring antitumor cytotoxicity for many years. […] The standard bioassay is done in 96-well microtiter plates using MTT [3-(4,5-dimethylthiazole-2-yl)-2,5-diphenytetrazolium bromide]. MTT is cleaved in the mitochondria of live cells to produce a dark blue formazan product. […] Adriamycin is used as an internal reference antitumor agent for the quality control of the standardized cytotoxicity assay.
(§2) The results of cytotoxicity evaluations are compared with those of animal experiments to examine what formulations were optimal for each experiment.

The subject of the next series is HT-29. Put plainly: Antitumor cytotoxicity GI50, MTT bioassay. The series is classed as cell-based. To be noted: Homo sapiens, HT-29 (colon).
Excerpt: as §1, §2

For a further series, the system named is PC-3. Description: Antitumor cytotoxicity GI50, MTT bioassay. To be noted: Homo sapiens, PC-3 (prostate). In kind it is cell-based.
Excerpt: as §1, §2

In the next series the test system is A-549. Put plainly: Antitumor cytotoxicity GI50, MTT bioassay. The series is classed as cell-based. The following applies: Homo sapiens, A549, A-549 (lung).
Excerpt: as §1, §2

Another series concerns MCF-7. Description: Antitumor cytotoxicity GI50, MTT bioassay. The series is classed as cell-based. The following applies: Homo sapiens, MCF7, MCF-7 (breast).
Excerpt: as §1, §2

The subject of the next series is A-498. Put plainly: Antitumor cytotoxicity GI50, MTT bioassay. The series is classed as cell-based. The following applies: Homo sapiens, A498, A-498 (kidney).
Excerpt: as §1, §2

The conditions of series [1]: at 37° C.; cited from earlier work.
Another series in a line: physchem. An excerpt:
(§3) These compounds were also used to examine the solubility increase of other poorly soluble drugs. […] Their chemical structures are shown below: [drawing 48]

The conditions of series [2]: log (CO/CW), octanol and water; cited from earlier work.
The nature of series [3]: Progesterone aqueous solubility in hydrotropic solutions. In kind it is physicochemical.
Excerpt: as §3

In brackets after ≈: the same amount, converted by molar mass.

Broadly, the GI50 is the concentration that inhibits growth by half. A low value points to greater sensitivity of the cells. Turning to `COc1cccc2c1C(=O)c1c(O)c3c(c(O)c1C2=O)C[C@@](O)(C(=O)CO)C[C@@H]3O[C@H]1C[C@H](N)[C@H](O)[C@H](C)O1` [Adriamycin], the GI50 was found to be 0.005 µg/mL (≈ 0.0092 µM) in the series on PaCa-2; 0.03 µg/mL (≈ 0.0552 µM) with HT-29; 0.02 µg/mL (≈ 0.0368 µM) with PC-3; 0.005 µg/mL (≈ 0.0092 µM) with A-549; 0.2 µg/mL (≈ 0.368 µM) with MCF-7; 0.005 µg/mL (≈ 0.0092 µM) in the series on A-498.

What is called solubility is how much of the substance goes into solution per volume. Turning to `COC1=CC(=O)C[C@@H](C)[C@]12Oc1c(Cl)c(OC)cc(OC)c1C2=O` [Griseofulvin], the “Water Solubility (μM)” value in [1] was 19.8 µM. Further, the Griseofulvin aqueous solubility in the series “physchem” is 7 µg/mL. In addition, the solubility in the series “physchem” (37 °C, water) is 7 µg/mL (≈ 19.8 µM). Also, the “Partition Coefficient” value in [2] is reported as 2.07.

Take `CC(=O)[C@H]1CC[C@H]2[C@@H]3CCC4=CC(=O)CC[C@]4(C)[C@H]3CC[C@]12C` [Progesterone]: in [3] (0.0 M, 37° C., mean ±SD, n=3), the “Progesterone solubility in hydrotropic solutions” value is 0.0012 ± 0.0000. In addition, the solubility in series [3] (37 °C, 0 M, control in pure water, read-out: Progesterone aqueous solubility) was found to be 1.2 µg/mL (≈ 3.82 µM); in series [3] (water without hydrotropic agent, water, 0.0 M, 37° C., mean ±SD, n=3, read-out: Progesterone solubility in hydrotropic solutions), 1.2 µg/mL (≈ 3.82 µM). For the same molecule, in series [1], the “Water Solubility (μM)” value is 3.8 µM. Also, the “Partition Coefficient” value in series [2] is reported as 3.84.
